From publication PMC8958501, “Hypothesis-Driven, Structure-Based Design in Photopharmacology: The Case of eDHFR Inhibitors” (Journal of Medicinal Chemistry, 2022)
Like-named read-outs stand apart in the source and are kept apart here.

Legend:
[1] = molecular target: T1, eDHFR (Escherichia coli, UniProt P0ABQ4); test: biochemical; conditions: for light-induced change in eDHFR inhibition (dark IC50 vs irradiated IC50): irradiation with λ1 = 365 nm;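 on all read-outs here: purified E. coli DHFR colorimetric assay, enzyme with NADPH 3 min then inhibitor (10^-12 to 10^-5 M) 7 min, rate ΔAbs/s relative to DMSO control (1% v/v), triplicates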
T1 construct: made in house; host or cells: E. cloni EXPRESS BL21 (DE3) cells (Lucigen), pT7-SC1 plasmid
Procedure: A 10 mM stock solution of the inhibitor in DMSO was divided into two parts. One half was thermally adapted with a heat gun for 1 min to obtain only the trans isomer.
The compounds were tested as eDHFR inhibitors via a colorimetric assay (Sigma-Aldrich, Catalog No. CS0340). Instead of the human DHFR protein provided in the kit, the in-house purified eDHFR was used. In a 3 mL cuvette, eDHFR (∼20 ng) was incubated with NADPH (60 μM, final) for 3 min, followed by an incubation with the inhibitor (from 10^–5 to 10^–12 M, final) for an additional 7 min. […] The concentration of DMSO in the final volume was 1% v/v for all enzymatic reactions. The measurements were performed in triplicates. For the control enzymatic reactions, eDHFR was incubated with NADPH and DMSO (1% v/v, final). […] The related control enzymatic reaction was also performed under continuous irradiation with λ1 = 390 nm light. Linear regression was performed in Microsoft Excel to calculate ΔAbs/s. % eDHFR activity was calculated as the ratio between ΔAbs/s for the sample and ΔAbs/s for the control reaction. GraphPadPrism 5.0 (GraphPad Software, Inc., version 5.00) was used for the determination of the IC50 of each inhibitor. Nonlinear regression was used for data fitting.

[2] = system: E. coli CS1562; test: Antibacterial activity assay (MIC, bacterial growth curves); assay type: cell-based, Escherichia coli; conditions: for MIC: Escherichia coli, E. coli CS1562, 24 h; for MIC / bacterial growth inhibition, same in both forms: both before and after irradiation with λ1 = 365 nm; for MIC / bacterial growth inhibition, same in both forms / light-induced difference in antibacterial activity (dark MIC vs irradiated MIC): E. coli CS1562; for light-induced difference in antibacterial activity (dark MIC vs irradiated MIC): irradiation with λ1 = 365 nm
Procedure: A culture of E. coli CS1562 was grown overnight in LB medium (10 g/L tryptone, 5 g/L yeast extract, 5 g/L NaCl) containing tetracycline (10 μg/mL) at 37 °C. The OD600 was measured, and the culture was diluted to 0.002 OD600 in LB medium. Series dilutions of the compounds were prepared in DMSO and diluted 25 times in sterile LB medium in a black sterile Eppendorf tube. […] Subsequently, the dark samples were added to the 96-well plate (100 μL, triplicates). Lastly, the LB medium containing E. coli CS1562 at 0.002 OD was added to every well (100 μL). The cells were grown overnight at 37 °C in a plate reader (Synergy H1, Biotek), and the OD600 was measured every 10 min with a 10 s shaking step before each measurement. The OD600 curves were background-corrected by subtracting the value at t = 0. […] Detailed data are reported in the SI.

[3] = Thermal cis-to-trans isomerization (thermal half-life of the metastable cis isomer); assay type: physicochemical; conditions: for t1/2 DMSO (25 °C): thermal cis-to-trans isomerization, 20 µM; for thermal lifetime t1/2: at 25 and 37 °C
Procedure: (§1) UV–vis absorption spectra were recorded on an Agilent 8453 UV–vis Spectrophotometer. Photochemical isomerization (photoswitching) was achieved by irradiation from the side in a fluorescence quartz cuvette (width = 1.0 cm) using a custom-built (Prizmatix/Mountain Photonics) multiwavelength fiber coupled LED system (FC6-LED-WL) including the following LEDs: 365A, 390B, 420Z, 445B, 535R, 630CA. A detailed description of the setup was published by us recently.[84] Alternatively, the samples were irradiated at 340 nm using the LOT Quantum design setup with 300 W Xe-Arc lamp, using the Thorlabs FB340-10 Bandpass filter. A Quantum Northwest TC1 temperature controller was used to maintain the temperature at 25 °C during photochemical studies. To analyze the fatigue resistance of the compounds, repeated irradiation cycles were performed using alternating wavelengths. The decrease and increase of the π–π* transition band was followed by UV–vis spectroscopy (Agilent 8453) at 25 °C while stirring. To determine the thermal lifetime for the metastable cis isomer, samples were irradiated with the custom-built setup until photostationary state (PSS) was reached. Then, the cuvettes were placed in a JASCO V750 spectrophotometer with a PTC 424S/15 temperature controller, and the recovery of the π–π* transition was followed while stirring at 25 °C (for solutions in DMSO and eDHFR assay buffer) or 37 °C (for solutions in 10 mM Tris-HCl buffer pH 7.0). The data were fitted using a first-order exponential function in OriginPro 2018. For the PSD determination by ^1H NMR spectroscopy, 0.5 mL of a 2 mM solution of the respective compound in DMSO-d6 was thermally equilibrated by briefly (∼10 s) heating the sample with a heat gun. Subsequently, the sample was irradiated in a glass NMR tube with a 365 nm hand-held lamp (Spectroline ENB-280C) or the LEDs of the custom-built setup. Detailed data are reported in the SI.

[4] = Solubility in eDHFR assay buffer; assay type: physicochemical; conditions: aqueous with cosolvent or surfactant or cyclodextrin, with 20% DMSO as an additive
[5] = Fatigue studies: repeated photoisomerization in the presence of GSH; assay type: physicochemical; conditions: eDHFR assay buffer, 10 mM GSH
Procedure: as §1

[6] = after irradiation, read-out: DHFR inhibition IC50 (nM) after irradiation
[7] = before irradiation, read-out: DHFR inhibition IC50 (nM) before irradiation
[8] = light or radiation study, after irradiation with λ1 = 365 nm, read-out: MIC Light
[9] = light or radiation study, after irradiation, read-out: MIC (µM) after irradiation
[10] = light or radiation study, before irradiation, read-out: MIC (µM) before irradiation
[11] = IC50 Dark, dark-adapted (thermally adapted, trans isomer)
[12] = irradiated to PSS with λ1 (340 nm for 3, 365 nm for 6-15), read-out: IC50 Light
[13] = irradiated with λ1 (1: continuous irradiation at 390 nm), read-out: IC50 Light

T1 sequence (P0ABQ4 whole entry): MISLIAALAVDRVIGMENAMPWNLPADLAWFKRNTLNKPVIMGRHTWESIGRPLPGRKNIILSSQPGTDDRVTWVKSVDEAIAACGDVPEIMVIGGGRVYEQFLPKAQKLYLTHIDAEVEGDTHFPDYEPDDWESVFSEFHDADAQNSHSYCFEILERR

Compound	melting point	IC50 [1, 6] [nM]	IC50 [1, 7] [nM]	light-induced change in eDHFR inhibition (dark IC50 vs irradiated IC50) [1]	MIC [2, 8] [µM]	MIC [2, 9] [µM]	MIC [2, 10] [µM]	MIC ([2]; dark, read-out: MIC Dark) [µM]	t1/2 DMSO (25 °C) [3] [h]	solubility [4] [µM]	MIC / bacterial growth inhibition, same in both forms [2] [µM]	fatigue / resistance to reduction upon repeated irradiation cycles [5]	thermal lifetime t1/2 [3] [h]	IC50 [1, 11] [nM]	IC50 [1, 12] [nM]	IC50 [1, 13] [nM]	light-induced difference in antibacterial activity (dark MIC vs irradiated MIC) [2]	IC50 ([1]; DHFR inhibition IC50 (nM) before irradiation, before irradiation) [nM]
COC(C)(C#Cc1cnc(N)nc1N)c1ccc(/N=N/c2ccc(C(=O)O)c(C)c2)cc1 (stereo not drawn) [Compound 14, (E)-4-{[4-(4-(2,4-Diaminopyrimidin-5-yl)-2-methoxybut-3-yn-2-yl)phenyl]diazenyl}-2-methylbenzoic acid]	240 °C (dec.)	37 ± 14	77 ± 26	2 fold	40	40	20	20	> 24	–	–	–	–	–	–	–	–	–
COC(C)(C#Cc1cnc(N)nc1N)c1cccc(/N=N/c2ccccc2)c1 (stereo not drawn) [Compound 7, (E)-5-{3-Methoxy-3-[3-(phenyldiazenyl)phenyl]but-1-yn-1-yl}pyrimidine-2,4-diamine]	105 to 107 °C	250 ± 140	190 ± 40	not significant	20	20	20	20	> 24	≤ 5	20	robust photoswitching	> 24	–	–	–	–	–
COC(C)(C#Cc1cnc(N)nc1N)c1ccc(/N=N/c2ccccc2)cc1 (stereo not drawn) [Compound 6, (E)-5-{3-Methoxy-3-[4-(phenyldiazenyl)phenyl]but-1-yn-1-yl}pyrimidine-2,4-diamine]	149 to 150 °C	160 ± 62	–	2 fold	20	20	> 40	> 40	> 24	≤ 5	–	robust photoswitching	> 24	370	160 ± 62	160	> 2 fold	–
COc1ccc(/N=N/c2ccc(C(C)(C#Cc3cnc(N)nc3N)OC)cc2)cc1 (stereo not drawn) [Compound 8, (E)-5-{3-Methoxy-3-[4-((4-methoxyphenyl)diazenyl]phenyl}but-1-yn-1-yl)pyrimidine-2,4-diamine]	186 to 189 °C	200 ± 77	–	–	> 80	> 80	> 80	> 80	> 24	–	> 80	–	–	330 ± 190	200 ± 77	200	–	330 ± 190
Nc1ncc(-c2cccc(/N=N/c3ccccc3)c2)c(N)n1 [Compound 3, (E)-5-[3-(Phenyldiazenyl)phenyl]pyrimidine-2,4-diamine]	209 to 211 °C	–	–	–	–	–	–	–	> 24	–	–	no sign of fatigue	–	280	710	–	–	–
COC(C)(C#Cc1cnc(N)nc1N)c1ccc(/N=N/c2c(C)nn(C)c2C)cc1 (stereo not drawn) [Compound 9, (E)-5-(3-Methoxy-3-(4-((1,3,5-trimethyl-1H-pyrazol-4-yl)diazenyl)phenyl)but-1-yn-1-yl)pyrimidine-2,4-diamine]	162 to 164 °C	640 ± 510	220 ± 60	–	80	80	80	80	> 24	–	–	–	–	–	–	–	did not display any light-dependent potency difference	–
COC(C)(C#Cc1cnc(N)nc1N)c1ccc(/N=N/c2ccc(Cl)c(C(=O)O)c2)cc1 (stereo not drawn) [Compound 13, (E)-2-Chloro-5-{[4-(4-(2,4-diaminopyrimidin-5-yl)-2-methoxybut-3-yn-2-yl)phenyl]diazenyl}benzoic acid]	212 °C (dec.)	29 ± 8.6	28 ± 4.8	no difference in activity	80	80	40	40	> 24	–	–	–	–	–	–	–	–	–
COC(C)(C#Cc1cnc(N)nc1N)c1ccc(/N=N/c2ccc(C)c(C(=O)O)c2)cc1 (stereo not drawn) [Compound 12, (E)-5-{[4-(4-(2,4-Diaminopyrimidin-5-yl)-2-methoxybut-3-yn-2-yl)phenyl]diazenyl}-2-methylbenzoic acid]	221 °C (dec.)	71 ± 18	13 ± 2.8	5 fold	20	20	20	20	> 24	–	–	–	–	–	–	–	–	–
COC(C)(C#Cc1cnc(N)nc1N)c1ccc(/N=N/c2cccc(C(=O)O)c2)cc1 (stereo not drawn) [Compound 10, (E)-3-{[4-(4-(2,4-Diaminopyrimidin-5-yl)-2-methoxybut-3-yn-2-yl)phenyl]diazenyl}benzoic acid]	190 °C (dec.)	–	–	–	20	20	20	20	> 24	–	20	–	–	24	57	–	–	–
